Experimental findings from ChEMBL document CHEMBL1148303, “Design and synthesis of alpha-aryloxy-alpha-methylhydrocinnamic acids: a novel class of dual peroxisome proliferator-activated receptor alpha/gamma agonists” (J Med Chem, 2004) are described below.

Assay [1] concerns the target T1, Peroxisome proliferator-activated receptor delta (Homo sapiens, UniProt Q03181).
T1 sequence (Q03181 whole entry): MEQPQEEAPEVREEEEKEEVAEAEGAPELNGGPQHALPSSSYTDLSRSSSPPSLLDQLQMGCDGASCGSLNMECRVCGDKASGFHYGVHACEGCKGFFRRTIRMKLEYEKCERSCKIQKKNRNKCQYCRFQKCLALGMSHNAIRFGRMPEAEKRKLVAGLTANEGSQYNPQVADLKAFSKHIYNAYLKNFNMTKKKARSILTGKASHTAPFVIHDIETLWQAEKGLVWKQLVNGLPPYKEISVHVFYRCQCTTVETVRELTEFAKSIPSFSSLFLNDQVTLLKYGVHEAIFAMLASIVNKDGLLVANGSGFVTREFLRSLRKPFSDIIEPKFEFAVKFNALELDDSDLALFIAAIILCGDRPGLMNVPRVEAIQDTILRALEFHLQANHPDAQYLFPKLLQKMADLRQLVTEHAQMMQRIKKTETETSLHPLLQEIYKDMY
In kind it is functional.

For assay [2], the target named is T1, Peroxisome proliferator-activated receptor delta. The assay is classed as cell-based. The settings on record: cv-1.
Assay [3] shares this target. The assay is classed as cell-based, CV-1.
Assay [4] has as its target T2, Peroxisome proliferator-activated receptor alpha (Homo sapiens, UniProt Q07869).
T2 sequence (Q07869 whole entry): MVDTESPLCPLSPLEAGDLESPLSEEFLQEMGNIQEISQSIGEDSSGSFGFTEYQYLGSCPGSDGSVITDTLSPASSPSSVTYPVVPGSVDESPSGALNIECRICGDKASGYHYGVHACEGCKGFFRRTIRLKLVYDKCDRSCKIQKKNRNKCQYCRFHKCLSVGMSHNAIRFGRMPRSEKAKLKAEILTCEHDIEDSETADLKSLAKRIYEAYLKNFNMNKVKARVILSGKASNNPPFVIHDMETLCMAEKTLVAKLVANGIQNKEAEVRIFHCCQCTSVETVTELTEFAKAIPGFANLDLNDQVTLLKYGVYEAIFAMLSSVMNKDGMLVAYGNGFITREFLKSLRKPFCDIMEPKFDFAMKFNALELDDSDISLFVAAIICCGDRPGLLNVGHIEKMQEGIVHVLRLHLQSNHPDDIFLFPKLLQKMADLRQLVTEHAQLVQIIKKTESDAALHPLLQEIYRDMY
The assay is classed as cell-based, CV-1.

The target of assay [5] is T2, Peroxisome proliferator-activated receptor alpha. The assay is classed as functional.
The target in assay [6] is T1, Peroxisome proliferator-activated receptor delta.
The target is the same in assay [7]. This is another data set of the same source.

As to `Cc1oc(-c2ccccc2)nc1CCOc1ccc(OC(C)(Cc2ccccc2)C(=O)O)cc1` (stereo not given), in assay [1], the half-maximal inhibitory concentration (IC50) is 4450 nM. The concentration for a half-maximal effect (EC50) result in assay [2] is listed as “Not Active”.

`Cc1oc(-c2ccccc2)nc1CCOc1ccc(CC(Oc2ccccc2)C(=O)O)cc1` (stereo not given): the concentration giving a half-maximal response (EC50) result in assay [3] (cv-1) was “Not Active”; in assay [4], 833 nM. Further, the IC50 in assay [5] amounted to 1110 nM; in assay [1] it was 7040 nM.

On to `Cc1oc(-c2cccs2)nc1CCOc1ccc(C[C@@](C)(Oc2ccccc2)C(=O)O)cc1`, for which the EC50 result in assay [3] (cv-1) is on record as “Not Active”.

With `Cc1oc(-c2ccccc2)nc1CCOc1ccc(C[C@](C)(Oc2ccccc2)C(=O)O)cc1`, in assay [3] (cv-1), the EC50 entry is listed as “Not Active”. In assay [1], this molecule displayed a concentration for half-maximal inhibition (IC50) of 5520 nM.

For `Cc1oc(-c2cccs2)nc1CCOc1ccc(CC(C)(Oc2ccccc2)C(=O)O)cc1` (stereo not given), the EC50 entry in assay [2] is “Not Active”.

As for `Cc1oc(-c2ccccc2)nc1CCOc1ccc(CC(C)(Oc2ccccc2)C(=O)O)cc1` (stereo not given), the midpoint of inhibition in assay [1], the IC50, lay at 7110 nM. For the same molecule, the EC50 entry in assay [2] is “Not Active”.

For the molecule `Cc1oc(-c2cccc(-c3ccccc3)c2)nc1CCOc1ccc(CC(C)(Oc2ccccc2)C(=O)O)cc1` (stereo not given), the EC50 in assay [4] is 7 nM; in assay [2], “Not Active”. Moreover, the concentration for half-maximal inhibition (IC50) in assay [5] is 167 nM; in assay [6], “Not Active”.

Regarding `Cc1oc(C2CCCCC2)nc1CCOc1ccc(C[C@](C)(Oc2ccccc2)C(=O)O)cc1`, the 50% effective concentration (EC50) result in assay [3] (cv-1) is recorded as “Not Active”. In assay [1], this molecule had a half-inhibitory concentration (IC50) of 9690 nM.

For the molecule `CCCCC(Cc1ccc(OCCc2nc(-c3ccccc3)oc2C)cc1)(Oc1ccccc1)C(=O)O` (stereo not given), the half-maximal effective concentration (EC50) entry in assay [3] (cv-1) is “Not Active”; in assay [4], 2560 nM. For the same molecule, the IC50 in assay [5] came out at 1850 nM; in assay [1], 7230 nM.

With `Cc1oc(C2CCCCC2)nc1CCOc1ccc(CC(C)(Oc2ccccc2)C(=O)O)cc1` (stereo not given), in assay [7], the IC50 entry was “Not Active”. The concentration for a half-maximal effect (EC50) result in assay [2] is “Not Active”.

`CCC(Cc1ccc(OCCc2nc(-c3ccccc3)oc2C)cc1)(Oc1ccccc1)C(=O)O` (stereo not given): the figures for the EC50 result in assay [3] (cv-1) and in assay [4] were “Not Active” and 75 nM, respectively. Moreover, the IC50 was found to be 473 nM in assay [5] and 5070 nM in assay [1].

As for `Cc1oc(-c2ccccc2)nc1CCOc1ccc(C[C@@](C)(Oc2ccccc2)C(=O)O)cc1`, the EC50 in assay [3] (read-out: EC50) was 3010 nM. The same molecule returned an IC50 in assay [1] of 2680 nM.

As for `Cc1oc(-c2ccc(-c3ccccc3)cc2)nc1CCOc1ccc(CC(C)(Oc2ccccc2)C(=O)O)cc1` (stereo not given), the IC50 entry was “Not Active” in assay [7] and 503 nM in assay [5]. Moreover, the EC50 is 69 nM in assay [4] and “Not Active” in assay [2].

For the molecule `Cc1oc(-c2cccs2)nc1CCOc1ccc(C[C@](C)(Oc2ccccc2)C(=O)O)cc1` [LY-510929], the EC50 result in assay [2] is listed as “Not Active”.

In general, IC50 refers to the concentration that inhibits the measured activity by half. By EC50 is commonly meant the midpoint of the concentration-response curve.
